In paper PMC5720837, “Identification of a 4-fluorobenzyl L-valinate amide benzoxaborole (AN11736) as a potential development candidate for the treatment of Animal African Trypanosomiasis (AAT)” (Bioorganic & Medicinal Chemistry Letters, 2018):
Where “and” joins values, the source holds several entries; their conditions need not be identical. Equal entries are not always repeated.

Key:
[1] = system: Trypanosoma congolense (T. congolense IL-3000 strain), bloodstream form; experiment: Whole cell Alamar Blue assay, T. congolense (72 h in vitro); format: cell-based; settings: T. congolense IL-3000, 72 h in vitro Alamar Blue assay
Method: (§1) Activity of compounds 1–71 against T. congolense and T. vivax was determined using the whole cell assays as described ^6 and their IC50 values are summarized in Table 1.
(§2) [6] Assay methods for determination of T. c. and T. v. […] Culture media consisted of complete HMI-9 (IMDM) with 20% bovine serum. To ensure log growth phase, trypanosomes were sub-cultured at appropriate dilutions every 2–3 days. Bloodstream form Trypanosoma vivax (T. vivax) cannot be cultured axenically, therefore trypanosomes (T. vivax STIB719/ILRAD 560 strain) were harvested from a highly parasitemia mouse via cardiac puncture and used directly in the ex vivo drug sensitivity assay on the same day. […] Parasite starting concentrations of 2 × 10^5 (T. c.) and 4 × 10^5 (T. v.) were calculated respectively, using a cell analyzer system or haemo-cytometer, followed by quantification at 536 nm excitation and 588 nm emission wavelengths using a […] reader. Test compounds were prepared as 10 mg/mL DMSO stocks for each assay run. Compounds were assayed in at least three separate, independent test runs and an 11-point dilution curve was used to determine the IC50 values. Data points were averaged to generate sigmoidal dose-response curves and IC50 values were determined using Softmax Pro 5.2 software.

[2] = system: Trypanosoma vivax (T. vivax STIB719/ILRAD 560 strain), bloodstream form; experiment: Whole cell Alamar Blue assay, T. vivax (48 h ex vivo); format: cell-based; settings: Trypanosoma vivax; T. vivax STIB719/ILRAD 560, 48 h ex vivo Alamar Blue assay
Method: as §1, §2

[3] = In vitro metabolic stability, mouse S9; format: in vitro ADME; settings: S9 fraction
Method: (§3) Selected compounds were screened in both mouse and bovine in vitro metabolic stability assays (mouse S9 and bovine S9), as summarized in Table 2. These two species were chosen because the primary in vivo assays were conducted in mice, and the target animal of this research program is cattle. […] We evaluated the efficacy of selected compounds in two in vivo mouse models of infection, against T. congolense and T. vivax, respectively. Mice were infected with either 1 × 10^5 T. c. parasites or 1 × 10^4 T. v. parasites, and then treated with a test compound via intraperitoneal administration for 1, 2 or 4 consecutive days. The mice were then monitored for the presence of parasitemia for up to 60 days post treatment.[7] We tested in T. c. model first, then followed up with T. v. for interesting compounds. […] We selected compound 5 (AN11736) to progress to exploratory studies to determine the efficacy and safety in a preliminary formulation against induced infections of T. vivax and T. congolense in cattle.[8]

[4] = In vitro metabolic stability, bovine S9; format: in vitro ADME; settings: S9 fraction
Method: as §3

[5] = system: T. c. parasites (STIB736/IL1180 strain); experiment: In vivo mouse model of T. congolense infection; set-up: species or system NMRI female mice; settings: for Efficacy in mouse model T. c., n/m (mice survived / total mice in group): intraperitoneal, monitored 60 days post treatment; for curative efficacy in the T. c.-infected mouse model: single dose of 10 mg/kg; for curative efficacy in the T. c.-infected mouse model / cure of T. c.-infected mice: IP; for cure of T. c.-infected mice: single 5 mg/kg dose
Method: as §3
(§4) [7] Methods for testing compound efficacy in mouse models: In vivo mouse efficacy studies were performed at the Swiss TPH, using established mouse models of infection for T. c. and T. v. NMRI female mice were independently infected either with 1 × 10^5T. c. parasites/mouse (STIB736/IL1180 strain) or 1 × 10^4T. v. parasites/mouse (STIB719/ILRAD560 strain) using an intraperitoneal route. Parasitemia was allowed to develop over 7 days (T. c.) or 3 days (T. v.), respectively, before treatment was administered. Compounds were administered via intraperitoneal injection in 10% DMSO/water. Four mice were used per treatment group. Mice were monitored for the presence of trypanosomes, via tail blood examination microscopically with twice-per-week parasitemia checks for 60 days post treatment. Parasitemia was graded on a scale of 0–3, with 0 indicating no trypanosomes seen in 20 fields of view, 1 indicating the presence of 1–5 trypanosomes per field, 2 indicating the presence of 6–20 trypanosomes per field and 3 indicating greater than 20 trypanosomes per field. Mice scoring 2 or 3 were immediately euthanized. After 60 days, aparasitemic mice were considered cured. Untreated control mice survive on average for 10 and 6 days post infection for T. c. and T. v., respectively. All in vivo mouse experiments were conducted in accordance with the strict guidelines set out by the Swiss Federal Veterinary Office, under the ethical approval of license number #2813.

[6] = system: T. v. parasites (STIB719/ILRAD560 strain); experiment: In vivo mouse model of T. vivax infection; set-up: species or system NMRI female mice; settings: for Efficacy in mouse model T. v., n/m (mice survived / total mice in group): intraperitoneal, monitored 60 days post treatment; for curative efficacy in the T. v.-infected mouse model: single dose of 10 mg/kg, IP
Method: as §3, §4

T. congolense = experiment: Efficacy against induced T. congolense infection in cattle; format: in vivo; settings: single intramuscular injection of 10 mg/kg, 100 days post treatment
Method: as §3
(§5) [8] Method for testing compound efficacy in cattle: The cattle studies were conducted in accordance with the method described for cattle by Eisler et al. (2001) in studies conducted in fly-proof facilities and using T. congolense and T. vivax isolates that had previously been confirmed resistant in cattle to diminazine (7 mg/kg live weight) and/or isometamidium (1 mg/kg live weight). […]

T. vivax = experiment: Efficacy against induced T. vivax infection in cattle; format: in vivo; settings: single intramuscular injection of 10 mg/kg, 100 days post treatment
Method: as §3, §5

Structure (SMILES)	IC50 ([1]; Trypanosoma congolense, 72 h)	IC50 [2]	microsomal CLint [3]	microsomal CLint [4]	Efficacy in mouse model T. c., n/m (mice survived / total mice in group) ([5]; 1 × 10 mg/kg)	curative efficacy in the T. c.-infected mouse model [5]	Efficacy in mouse model T. v., n/m (mice survived / total mice in group) ([6]; 1 × 10 mg/kg)	curative efficacy in the T. v.-infected mouse model [6]	Efficacy in mouse model T. c., n/m (mice survived / total mice in group) ([5]; 2 × 10 mg/kg)	Efficacy in mouse model T. v., n/m (mice survived / total mice in group) ([6]; 4 × 10 mg/kg)	Efficacy in mouse model T. v., n/m (mice survived / total mice in group) ([6]; 2 × 10 mg/kg)	IC50 [1]	Efficacy in mouse model T. c., n/m (mice survived / total mice in group) ([5]; 1 × 5 mg/kg)	cure of T. c.-infected mice [5]	Efficacy in mouse model T. v., n/m (mice survived / total mice in group) ([6]; 1 × 10 mg/kg, 10 mg/kg)	curative efficacy against T. congolense in cattle (T. congolense)	curative efficacy against T. vivax in cattle (T. vivax)
Cc1c(C(=O)N[C@H](C(=O)OCc2ccc(OCCN3CCCC3)cc2)C(C)C)ccc2c1B(O)OC2 [Compound 49]	0.39 nM	68 nM	1.5 µL/min/mg	4 µL/min/mg	2/4 (1 × 10)	≥ 50%	4/4 (1 × 10)	100%	–	–	–	–	–	–	–	–	–
Cc1c(C(=O)N[C@H](C(=O)OCc2ccc(C(F)(F)F)nc2)C(C)C)ccc2c1B(O)OC2 [Compound 33]	0.28 nM	26 nM	6.3 µL/min/mg	2 µL/min/mg	3/4 (1 × 10)	–	4/4 (1 × 10)	100%	–	–	–	–	–	–	–	–	–
Cc1c(C(=O)N[C@H](C(=O)OCC2CCOCC2)C(C)C)ccc2c1B(O)OC2 [Compound 63]	0.39 nM	0.09 nM	0.9 µL/min/mg	1.5 µL/min/mg	1/4 (1 × 10)	–	4/4 (1 × 10)	–	–	–	–	–	–	–	–	–	–
Cc1c(C(=O)N[C@H](C(=O)OCc2ccc(C(F)(F)F)cn2)C(C)C)ccc2c1B(O)OC2 [Compound 34]	0.14 nM	0.07 nM	11.8 µL/min/mg	4.8 µL/min/mg	2/4 (1 × 10)	≥ 50%	4/4 (1 × 10)	100%	–	–	–	–	–	–	–	–	–
CC(C)[C@H](NC(=O)c1ccc2c(c1)B(O)OC2)C(=O)OCc1ccccc1 [Compound 2]	2 nM	2 nM	–	–	–	–	1/5	–	0/5 (2 × 10)	5/5	–	–	–	–	–	–	–
Cc1c(C(=O)N[C@H](C(=O)OCc2cccc(CN(C)C)c2)C(C)C)ccc2c1B(O)OC2 [Compound 51]	0.25 nM	0.21 nM	1.8 µL/min/mg	5 µL/min/mg	0/4 (1 × 10)	–	4/4 (1 × 10)	–	–	–	–	–	–	–	–	–	–
CC(C)[C@H](NC(=O)c1ccc2c(c1F)B(O)OC2)C(=O)OCc1ccc(F)cc1 [Compound 21]	28 nM	–	< 1 µL/min/mg	< 1 µL/min/mg	–	–	–	–	1/4 (2 × 10)	–	4/4 (2 × 10)	–	–	–	–	–	–
Cc1c(C(=O)N[C@H](C(=O)OCc2ccc(F)cc2)C(C)C)ccc2c1B(O)OC2 [Compound 5, 4-fluorobenzyl (1-hydroxy-7-methyl-1,3-dihydrobenzo[c][1,2]oxaborole-6-carbonyl)-L-valinate]	0.15 nM	1.3 nM	5.4 µL/min/mg	9.3 µL/min/mg	4/4	–	–	100%	5/5	–	5/5	0.14 nM	0/4	unable to cure	5/5 and 4/4	100%	100%
Cc1c(C(=O)N[C@H](C(=O)OCc2cccc(N3CCN(C)CC3)c2)C(C)C)ccc2c1B(O)OC2 [Compound 50]	0.32 nM	0.48 nM	8.6 µL/min/mg	12.7 µL/min/mg	1/4 (1 × 10)	–	4/4 (1 × 10)	–	–	–	–	–	–	–	–	–	–
Cc1c(C(=O)N[C@H](C(=O)OCc2ccccc2)C(C)C)ccc2c1B(O)OC2 [Compound 4]	0.46 nM	0.79 nM	–	–	–	–	4/4	–	4/5 (2 × 10)	–	5/5	–	–	–	–	–	–
Cc1c(C(=O)N[C@H](C(=O)OC2CCC(F)(F)CC2)C(C)C)ccc2c1B(O)OC2 [Compound 70]	0.34 nM	2.28 nM	1.5 µL/min/mg	0.3 µL/min/mg	1/4 (1 × 10)	–	4/4 (1 × 10)	–	–	–	–	–	–	–	–	–	–
Cc1c(C(=O)N[C@H](C(=O)OCc2ccc(F)c(F)c2)C(C)C)ccc2c1B(O)OC2 [Compound 8]	0.28 nM	0.07 nM	7.9 µL/min/mg	5.6 µL/min/mg	4/4	–	4/4 (1 × 10)	100%	–	–	–	–	0/4	unable to cure	–	–	–
Cc1c(C(=O)N[C@H](C(=O)OCC2CCCCC2)C(C)C)ccc2c1B(O)OC2 [Compound 62]	0.38 nM	0.16 nM	10 µL/min/mg	20 µL/min/mg	2/4 (1 × 10)	≥ 50%	4/4 (1 × 10)	100%	–	–	–	–	–	–	–	–	–
Cc1c(C(=O)N[C@H](C(=O)OCC2CCC(F)(F)CC2)C(C)C)ccc2c1B(O)OC2 [Compound 71]	0.2 nM	0.14 nM	6.4 µL/min/mg	8.1 µL/min/mg	3/4 (1 × 10)	–	4/4 (1 × 10)	100%	–	–	–	–	–	–	–	–	–
Cc1c(C(=O)N[C@H](C(=O)OC2CCOCC2)C(C)C)ccc2c1B(O)OC2 [Compound 69]	0.47 nM	1.6 nM	0.7 µL/min/mg	0.6 µL/min/mg	1/4 (1 × 10)	–	1/4 (1 × 10)	–	–	–	–	–	–	–	–	–	–
CC(C)c1c(C(=O)N[C@H](C(=O)OCc2ccc(F)cc2)C(C)C)ccc2c1B(O)OC2 [Compound 26]	2.3 nM	0.05 nM	32 µL/min/mg	32 µL/min/mg	0/4 (1 × 10)	–	–	–	–	–	–	–	–	–	–	–	–
